Assay [1] relates to VSVΔ51 in 786-0 tumors. Type of assay: cell-based, SCID mice.
Assay [2] relates to VSVΔ51 in 786-0 tumors. Also on record: species or system SCID mice. The following applies: mouse, in vivo, iv.
A further assay relates to VSVΔ51 in GM38 cells. The class given is cell-based, human. The following applies: 24 hours.
Assay [3] has as its system VSVΔ51 in 786-0 cells. The class given is cell-based, human. The following applies: 24 hours.
For the next assay, the system named is HSV-1 in 786-0 cells. The class given is cell-based, human. The following applies: 48 hours.
Assay [4] relates to VSVΔ51 in 786-0 cells. The class given is cell-based, human.
The test system of another assay is VSVΔ51 in MC38 cells. Type of assay: cell-based, mouse. The following applies: 48 hours.
The next assay has as its system VSVΔ51 in OVCAR8 cells. Type of assay: cell-based, human. The settings on record: 24 hours.
A further assay deals with VSVΔ51 in OVCAR8 tumors. Also on record: species or system SCID mice. The following applies: mouse, in vivo, iv.
In the next assay the test system is VSV in 786-0 cells. Type of assay: cell-based, human. The following applies: 24 hours.
Assay [5] deals with VSVΔ51 in MiaPaca tumors. Type of assay: cell-based, SCID mice.
The subject of assay [6] is VSVΔ51 in MiaPaca tumors. Type of assay: in vivo, SCID mice. The settings on record: 72 hours.
The subject of the next assay is VSVΔ51 in WI38 cells. The class given is cell-based, human. The settings on record: 24 hours.
For the next assay, the system named is VSVΔ51 in CT26 cells. Type of assay: cell-based, mouse. The settings on record: 24 hours.
The subject of assay [7] is JX594-GFP in 786-0 cells. Type of assay: cell-based, human. The following applies: 48 hours.
A further assay has as its system Reovirus in 786-0 cells. Type of assay: cell-based, human. The settings on record: 48 hours.
In assay [8] the test system is human H1N1 Influenza A strain FM/1/47 in MRC5 cells. The assay can be described thus: Influenza A titers in MRC5 cells treated with FGF2, nucleoprotein ELISA. The following applies: FGF2 100 ng/ml, serum free media; MOI 0.05 or 0.1; FIG. 21. Type of assay: cell-based. How it is done:
MRC5 cells were treated with 100 ng/ml FGF2, 100 ng/ml leptin, or mock treated, in serum free media.
48 hours later, cells were infected with the human H1N1 Influenza A strain FM/1/47 at MOI 0.05 or 0.1, as indicated, in the presence of 1 μg/ml TPCK trypsin. 48 h (MOI 0.1) or 72 h (MOI 0.05) later, supernatants from triplicate wells were collected and pooled. Viral titers were obtained by ELISA for Influenza A nucleoprotein. The resulting titers are illustrated in FIG. 21.

Assay [9] relates to Measles virus (Edmonston strain) in WI38 cells. Kind of assay: Measles virus titers in WI38 cells treated with FGF2, plaque assay. The class given is cell-based, human. The following applies: FGF2 100 ng/ml, serum free media; MOI 0.1; 48 hours; FIG. 22. The protocol: WI38 cells were treated with 100 ng/ml FGF2, or mock treated, in serum free media.
24 hours later, cells were infected with Measles virus (Edmonston strain) at an MOI 0.1. 48 hours later, supernatants were collected and virus titration was performed by plaque assay in Vero cells. The resulting titers are illustrated in FIG. 22.

A further assay relates to MG1 in 786-0 cells. Type of assay: cell-based, human. The settings on record: 24 hours.
Assay [10] is described as follows: Enhancement of virus replication, test not described. The settings on record: no test details given.
Assay [11] has as its system JX594-GFP in 786-0 cells. Type of assay: cell-based, human.

Read-outs that look alike come from different tables or passages of the source. Bounds are passed on as bounds.

For “FGF2: recombinant human FGF2 protein; amino acid sequence shown in SEQ ID NO: 9”, the “ex-vivo virus infection and GFP expression, fluorescent pictures” value in the assay on VSVΔ51 in 786-0 tumors [1] was “increased ex-vivo virus infection and transgene protein expression (GFP)”; in the assay with VSVΔ51 in MiaPaca tumors [5], “increased ex-vivo virus infection and transgene protein expression (GFP)”. Besides, the “ex vivo virus production (virus titers)” value in the assay on VSVΔ51 in 786-0 tumors [1] (48 hours) and in the assay on VSVΔ51 in MiaPaca tumors [5] (48 hours) was “enhancement of ex vivo virus production” each time. Moreover, the “VSVΔ51 titers in tumors” value in the assay on VSVΔ51 in 786-0 tumors [2], in the assay on VSVΔ51 in OVCAR8 tumors and in the assay on VSVΔ51 in MiaPaca tumors [6] was “enhanced virus replication” each time. For the same molecule, in the assay with VSVΔ51 in GM38 cells, the “effect on virus replication” value is recorded as “did not significantly affect virus replication”. The “virus titers, fold higher compared to control (untreated and FGF1-treated) cells” value with VSVΔ51 in 786-0 cells [3] is 10 fold. In addition, the “virus replication vs untreated cells” value in the assay with HSV-1 in 786-0 cells, in the assay with VSVΔ51 in 786-0 cells [4] (24 hours), with VSV in 786-0 cells, in the assay on JX594-GFP in 786-0 cells [7], with Reovirus in 786-0 cells and with MG1 in 786-0 cells was “enhanced virus replication” in each case. Also, in the assay on VSVΔ51 in 786-0 cells [4], the “rate of production of VSVΔ51 compared to untreated 786-0 cells” value is recorded as “increased”. In addition, the “FGF2 concentration at which enhanced VSVΔ51 replication is seen” value in the assay on VSVΔ51 in 786-0 cells [4] (24 hours) is at most 20 ng/mL. Moreover, the “total PFU/mL, fold higher than untreated or FGF1-treated cells” value with VSVΔ51 in 786-0 cells [4] (24 hours), in the assay on VSVΔ51 in OVCAR8 cells, in the assay with VSVΔ51 in WI38 cells and with VSVΔ51 in CT26 cells was “at least 15 fold” in each case. Further, the “pfu/ml in cell associated supernatants” value with VSVΔ51 in 786-0 cells [4] (after 6 hours) is listed as “about 1E2 pfu/ml”. Further, the “plaque forming units/mL in cell associated supernatants” value with VSVΔ51 in 786-0 cells [4] (after 48 hours) is on record as “about 5E6 pfu/mL”. Also, in the assay on VSVΔ51 in MC38 cells, the Virus titre stood at 7.73e6 ± 9.8e5 pfu/mL. The “influenza viral replication (viral titers)” value in assay [8] is listed as “Enhanced Viral Replication”. Moreover, in assay [9], the “measles viral replication (virus titers)” value is given as “Enhanced Viral Replication”.

As for “SEQ ID NO: 14: human recombinant FGF2 protein (Accession: # P09038)”, the virus replication entry in [10] is given as “enhance virus replication”.

B1: mFGF2: recombinant murine FGF2 protein; amino acid sequence shown in SEQ ID NO: 11 (protein)
chain: MAASGITSLPALPEDGGAAFPPGHFKDPKRLYCKNGGFFLRIHPDGRVDGVREKSDPHVKLQLQAEERGVVSIKGVCANRYLAMKEDGRLLASKCVTEECFFFERLESNNYNTYRSRKYSSWYVALKRTGQYKLGSKTGPGQKAILFLPMSAKS
modifications: recombinant mouse protein
Take B1: in the assay with VSVΔ51 in MC38 cells, the Virus titre is recorded as 8.20e6 ± 1.1e6 pfu/mL. Besides, in the assay on JX594-GFP in 786-0 cells [11], the “Average of pixel intensity” value is reported as 24.90 and the “Relative pixel intensity increase” value came out at 4.37. In the assay with JX594-GFP in 786-0 cells [11] (after 48 hours), the “Average of pixel intensity” value is listed as 24.90 and the “Relative pixel intensity increase” value stood at 4.37.

(Values after US10604741B2, “Compositions and methods for enhancing virus replication” (TURNSTONE LIMITED PARTNERSHIP, priority 2013, dated 2020).)
